The numbers were not newly measured in US20120149888A1, “SYNTHESIS OF ARA-2'-O-METHYL-NUCLEOSIDES, CORRESPONDING PHOSPHORAMIDITES AND OLIGONUCLEOTIDES INCORPORATING NOVEL MODIFICATIONS FOR BIOLOGICAL APPLICATION IN THERAPEUCTICS, DIAGNOSTICS, G- TETRAD FORMING OLIGONUCLEOTIDES AND APTAMERS” (priority 2009, published 2012), which cites them from elsewhere.

SMILES strings stand for the structures. Entries after “also recorded” stand apart in the source; their conditions may differ. Like-named read-outs stand apart in the source and are kept apart here.

In one data set the test system is Ehrlich ascites (ETGR11). The note with it: Thioguanine-resistant Ehrlich ascites (ETGR11).
A further data set concerns Ehrlich ascites (EAC-R2). Conditions: 6-Methyl thiopurine ribonucleoside-resistant Ehrlich ascites (EAC-R2).
The test system of another data set is Raji Burkitt's lymphoma. Conditions: rat, in vivo.
The test system of the next data set is Raji leukemia. Conditions: mouse, in vivo.
Data set [1] relates to nucleoside carrier-dependent transport. Conditions: in vitro.
Data set [2] deals with human erythroleukemia cell line (K562).
In data set [3] the test system is equilibrative NBMPR-sensitive nucleoside transporter (es). The note with it: growth-inhibitory concentrations.
In the next data set the test system is Sarcoma 180. The note with it: in vivo.
The test system of another data set is L1210/MP(III). Conditions: mouse, in vivo.
For the next data set, the system named is P815/FU. Conditions: in vivo.
For the next data set, the system named is L1210/C95. Conditions: in vivo.
In data set [4] the test system is hydroxyurea-, vincristine-, VLB-, TSC-, cortisone- and MGGH-resistant mouse leukemias.
Data set [5] has as its system L1210 line resistant to MGGH. The note with it: in vivo.
Another data set relates to AKR/r-AzCR. Conditions: mouse, in vivo.
The test system of a further data set is AKR/r-AzCdR. The note with it: mouse, in vivo.
For another data set, the system named is L1210/MP. Conditions: 6-Mercaptopurine-resistant L1210/MP.
For data set [6] the following is noted: in vivo.
Data set [7] addresses purine nucleoside phosphorylase (PNP) (Homo sapiens, UniProt P00491).
The subject of data set [8] is T-lymphoblasts, B-lymphoblasts.
The test system of data set [9] is explants of intact rat colonic mucosa.
For a further data set, the system named is L1210/CA. The note with it: 1β-D-Arabinofuranosylcytosine-resistant L1210/CA.
The subject of the next data set is P815. The note with it: 1β-D-Arabinofuranosylcytosine-resistant P815.
The subject of another data set is L1210/ara-C. The note with it: L1210/ara-C (Schabel et al., 1971).
Data set [10] concerns ara-C-resistant neoplasms. Conditions: several other ara-C-resistant neoplasms.

purine nucleoside phosphorylase (PNP), sequence (P00491 whole entry, species assumed): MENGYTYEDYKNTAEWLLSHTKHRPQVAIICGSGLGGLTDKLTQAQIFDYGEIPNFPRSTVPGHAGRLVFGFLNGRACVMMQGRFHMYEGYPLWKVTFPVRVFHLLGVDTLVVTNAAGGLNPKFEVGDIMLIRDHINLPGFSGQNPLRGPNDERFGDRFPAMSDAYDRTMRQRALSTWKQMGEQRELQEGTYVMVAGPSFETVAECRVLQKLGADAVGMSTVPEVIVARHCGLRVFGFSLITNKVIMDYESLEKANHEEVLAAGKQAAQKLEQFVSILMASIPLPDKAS

Take `Sc1ncnc2nc[nH]c12` [6-Mercaptopurine]: the “Response to chemotherapeutic drugs: Cross-resistant” value is given as 6-Mercaptopurine in the data set on Ehrlich ascites (ETGR11), 6-Mercaptopurine^b in the data set on Ehrlich ascites (EAC-R2) and “partially cross-resistant” in the data set with Ehrlich ascites (EAC-R2) (listed as 6-MP).
Consider `Nc1ccn([C@@H]2O[C@H](CO)[C@@H](O)[C@@H]2O)c(=O)n1` [Ara-C, 1-β-D-Arabinofuranosylcytosine], for which the mean survival time in the data set with Raji Burkitt's lymphoma is recorded as 13.2 days; in the data set with Raji leukemia, 34.2 days. Moreover, in the data set on Raji leukemia, the “animals that survived (>80 days)” value is “none”. The “cellular sensitivity in presence of nitrobenzylmercaptopurine riboside and dipyridamol” value in data set [1] is listed as “reduced strongly”. For the same compound, the “resistance of K562R to ara-C compared with K562S” value in data set [2] (3H-dThd incorporation, MTT dye reduction and clonogenicity) is on record as “approximately 15 fold”. The “ara-CTP accumulated by K562S versus K562R” value in data set [2] (4-h exposure, 10 microM) is listed as “seven times more”. In addition, in [2] (4-h exposure, 10 microM), the “more ara-C incorporated into DNA by K562S versus K562R” value was “approximately 250%”. For the same compound, the expression of es entry in [3] was “no significant increase”. In addition, the “Response to chemotherapeutic drugs: Same as parent line” value (“Response … as parent line” below) with Sarcoma 180 was “Ara-C”; in the data set with L1210/MP(III), “retained sensitivity; also recorded: Ara-C”; in the data set with P815/FU, “retained the same sensitivity; also recorded: Ara-C”. Besides, the “response of L1210/C95 to the drug” value in the data set with L1210/C95 is listed as “sensitive”. For the same compound, in data set [4], the “activity against drug-resistant mouse leukemias” value is recorded as “active”. In data set [5], the “response of MGGH-resistant L1210 line to the drug” value is recorded as “collaterally sensitive”. Besides, the “Response to chemotherapeutic drugs: Cross-resistant” value in the data set with AKR/r-AzCR and in the data set on AKR/r-AzCdR was “cross-resistant; also recorded: Ara-C” in each case.
Regarding `CN(C)/N=N/c1[nH]cnc1C(N)=O` [DIC], the “Response … as parent line” value in the data set on L1210/MP was “DIC”.
`COc1nc(N)nc2c1ncn2[C@@H]1O[C@H](CO)[C@@H](O)[C@@H]1O` [Nelarabine]: the “dose toxicity in the clinical trials” value in [6] is “neurotoxicity”.
Consider `Nc1nc2c(ncn2[C@@H]2O[C@H](CO)[C@@H](O)[C@@H]2O)c(=O)[nH]1` [araG, N-9-[β-D-Arabinofuranosyl]guanine], for which the “degradation by purine nucleoside phosphorylase (PNP)” value in data set [7] is recorded as “relatively resistant”. In addition, in [8], the “efficiency in T-lymphoblasts compared to B-lymphoblasts” value is “higher efficiency”.
Turning to `NC(=O)NO` [hydroxyurea], the expression of es entry in [3] is on record as “increases”. In addition, the “incorporation of tritiated TdR into DNA” value in data set [9] was “reduced”. Also, the entries for the “Response … as parent line” value in the data set with L1210/CA, with P815 and with L1210/ara-C were “Hydroxyurea”, “Hudroxyurea” and “Hydroxyurea”, respectively. Besides, the “cross-resistance of ara-C-resistant neoplasms to the drug” value in [10] was “no cross-resistance”.
